Patent publication US20230212164A1, “ANNULATED 2-AMINO-3-CYANO THIOPHENES AND DERIVATIVES FOR THE TREATMENT OF CANCER” (BOEHRINGER INGELHEIM INTERNATIONAL GMBH, priority 2020, published 2023)

Columns and labels:
MiaPaCa-2 cells = experiment: MiaPaCa-2 CTG proliferation assay (pancreatic cancer); format: cell-based; settings: Homo sapiens, MIA PaCa-2, 120 h, 5 days, read-out: IC50 MiaPACA2
Method: (§1) The proliferation assays started (day1) with seeding cells in flat bottom 384 well microtiter plates in 90 μL DMEM medium supplemented with 10% FBS at a density of 500 cells/well. Any other luminescence compatible plate format is possible. On day 2, 10 μL dilutions of the test compounds covering a concentration range between app. 0,1 and 10.000 nM were added to the cells. Cells were incubated for 5 days in a humidified, incubator with 5% CO2 at 37° C. On day 7 100 μl of Cell Titer Glow reagent (Cell titer Glo Luminescent Cat. No. G7571, Promega) were added to each well and incubated for additional 10 min at room temperature (with agitation). Luminescence was measured on a Wallac Victor using standard luminescence read out. IC50 values were calculated using standard Levenburg Marquard algorithms (GraphPad Prism).

SW837 cells = experiment: SW 837 CTG proliferation assay (CRC); format: cell-based; settings: Homo sapiens
Method: SW837 cells (ATCC #CCL-235) were grown in cell culture flasks (175 cm^2) using L-15 10% FCS, 1% L-Glu, 1xNEAA and 1× Na-Pyrovat. Cultures were incubated at 37° C. and 0% CO2 in a humidified atmosphere, with medium change or subcultivation 2-3 times a week. Materials used for the assay were CulturPlate-384, White Opaque 384-well Microplate, Sterile and Tissue Culture Treated (Perkin Elmer #6007680), Leibovitz L15 Medium and FBS #SH30071.03 (HyClone).
as §1, with “L-15” for “DMEM medium supplemented with”, “FCS, 1% L-Glu, 1xNEAA and 1×Na-Pyrovat” for “FBS”, “humidified, CO2 controlled (no CO2)” for “humidified,”, “incubator” for “incubator with 5% CO2”, “μL” for “μl”

NCI-H358 cells = experiment: NCI-H358 CTG proliferation assay (120 h) (NSCLC); format: cell-based; settings: Homo sapiens
Method: NCI-H358 cells (ATCC No. CRL-5807) were dispensed into white bottom opaque 96 well plates (Perkin Elmer cat no. 5680) at a density of 2000 cells per well in 100 μL RPMI-1640 ATCC-Formulation (Gibco #A10491)+10% FCS. Cells were incubated overnight at 37° C. in a humidified tissue culture incubator at 5% CO2. Compounds (10 mM stock in DMSO) were added at logarithmic dose series using the HP Digital Dispenser D300 (Tecan), normalizing for added DMSO. For the T0 time point measurement, untreated cells were analyzed at the time of compound addition. Plates were incubated for 120 hours, and cell viability was measured using CellTiter-Glo luminescent cell viability reagent (Promega product code G7570). Viability (stated as percent of control) is defined as relative luminescence units RLU of each well divided by the RLU of cells in DMSO controls. IC50 values were determined from viability measurements by non-linear regression using a four parameter model.

[1] = molecular target: T1, protein-protein interaction between SOS1 and KRAS G12C (Homo sapiens, UniProt P01116, C118S/C51S/C80L/G12C); experiment: KRAS::SOS1 AlphaScreen binding assay; settings: Table 36
T1 construct: His6 (N)
T1 sequence (P01116 1-169 isoform P01116-2 G12C/C51S/C80L/C118S): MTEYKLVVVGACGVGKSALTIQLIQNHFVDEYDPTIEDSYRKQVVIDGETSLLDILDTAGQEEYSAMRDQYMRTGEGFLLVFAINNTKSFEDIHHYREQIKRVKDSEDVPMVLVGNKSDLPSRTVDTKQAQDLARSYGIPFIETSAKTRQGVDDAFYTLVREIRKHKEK

[2] = molecular target: KRASG12-dependent Ba/F3 cells (Homo sapiens, UniProt P01116, G12C, cells depend on it); experiment: Ba/F3 cell model proliferation assay (AlamarBlue, 72 h); format: cell-based; settings: Ba/F3 cells transduced with KRASG12C, read-out: IC50 Ba/F3 KRASG12C
Chain of KRASG12-dependent Ba/F3 cells (P01116 whole entry G12C): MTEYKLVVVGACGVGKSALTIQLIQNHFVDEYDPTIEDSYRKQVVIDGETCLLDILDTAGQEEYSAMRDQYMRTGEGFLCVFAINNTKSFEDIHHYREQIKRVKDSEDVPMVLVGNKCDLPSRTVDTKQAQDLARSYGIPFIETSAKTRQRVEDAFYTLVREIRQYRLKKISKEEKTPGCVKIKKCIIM

[3] = system: pERK (Thr202/Tyr204) in NCI-H358_Cas9_SOS2 (SOS2 knocked); experiment: ERK phosphorylation assay 2 (AlphaLISA SureFire Ultra p-ERK1/2); settings: read-out: IC50 H358 pERK, ERK phosphorylation assay 2 (values marked with *)
Method: ERK Phosphorylation Assay
Low IC50 values in this assay setting are indicative of high potency of the compounds according to the invention.
GFP positive cells were collected and further expanded. These GFP-positive cell pools were single-cell diluted and SOS2 knock-out clones were identified via Western-blot and genomic DNA sequencing analysis.
Materials Used for the Assay:
AlphaLISA SureFire Ultra p-ERK1/2 (Thr202/Tyr204) Assay Kit (ALSU-PERK-A500)
Cells are seeded at 40,000 cells per well in /60 μL of RPMI with 10% FBS, non-essential amino acids, pyruvate and glutamax in Greiner TC 384 plates. The cells are incubated for 1 h at room temperature and then incubated overnight in an incubator at 37° C. and 5% CO2 in a humidified atmosphere. 60 nL compound solution (10 mM DMSO stock solution) is then added using a Labcyte Echo 550 device. After a 1 h incubation in the aforementioned incubator the medium is removed after centrifugation and the cells lysed by addition of 20 μL of 1.6-fold lysis buffer from the AlphaLISA SureFire Ultra pERK1/2 (Thr202/Tyr204) Assay Kit with added protease inhibitors, 100 nM trametinib+100 nM staurosporine. After 20 minutes of incubation at room temperature with shaking, 6 μL of each lysate sample is transferred to a 384-well Proxiplate and analyzed for pERK (Thr202/Tyr204) with the AlphaLISA SureFire Ultra pERK1/2 (Thr202/Tyr204) Assay Kit. 3 μL Acceptor Mix and 3 μL Donor Mix are added under subdued light and incubated for 2 h at room temperature in the dark, before the signal is measured on a PerkinElmer Envision HTS Multilabel Reader. The raw data were imported into and analyzed with the Boehringer Ingelheim proprietary software MegaLab (curve fitting based on the program PRISM, GraphPad Inc.).

Row | IC50 (MiaPaCa-2 cells) [nM] | IC50 (SW837 cells) [nM] | IC50 (NCI-H358 cells) [nM] | IC50 [1] [nM] | GI50 [2] [nM] | IC50 [3] [nM] | Structure (SMILES)
1 | 13.3 | 4.11 | 4.2 | 2 | 6.9 | 2.6 | C=CC(=O)N1CCN(c2cc(O[C@@H](C)[C@@H]3CCCN3C)nc(-c3noc([C@@]4(C)CCCc5sc(N)c(C#N)c54)n3)n2)CC12CC2 [Ia-77]
2 | 673 | 71 | 41.4 | 12 | 77.7 | 28.9 | C=CC(=O)N1C[C@H](C)N(c2cc(-c3noc([C@@]4(C)CCCc5sc(N)c(C#N)c54)n3)nc(O[C@@H](C)[C@@H]3CCCN3C)n2)C[C@H]1C [Ia-133]
3 | 3 | < 1 | 0.95 | 1.7 | 4.4 | 2.1 | C=CC(=O)N1CCN(c2cc(-c3noc([C@@]4(C)CCCc5sc(N)c(C#N)c54)n3)nc(O[C@@H](C)[C@@H]3CCCN3C)n2)CC1 [Ia-46]
4 | 13.8 | 2.08 | 4.67 | 2 | 7 | 3.9 | C=CC(=O)N1[C@H](C)CC(Oc2cc(O[C@@H](C)[C@@H]3CCCN3C)nc(-c3noc([C@@]4(C)CCCc5sc(N)c(C#N)c54)n3)c2)C[C@H]1C (stereo partly drawn) [Ia-86]
5 | 4.23 | 0.63 | 0.67 | 1.6 | 2.3 | 1.3 | C=CC(=O)N1CCN(c2cc(-c3noc([C@@]4(C)CCCc5sc(N)c(C#N)c54)n3)nc(O[C@@H](C)[C@@H]3CCCN3C)n2)C[C@@H]1C [Ia-61]
6 | 12.1 | 6.34 | 7.42 | 2.2 | 12 | 3.5 | C=CC(=O)N1[C@H](C)CN(c2cc(-c3noc([C@@]4(C)CCCc5sc(N)c(C#N)c54)n3)nc(O[C@@H](C)[C@@H]3CCCN3C)n2)C[C@@H]1C [Ia-64]
7 | 2.22 | 2.25 | 1.34 | 1.6 | 4.3 | 2.2 | C=CC(=O)N1CCN(c2cc(-c3noc([C@@]4(C)CCCc5sc(N)c(C#N)c54)n3)nc(O[C@@H](C)[C@@H]3CCCN3C)n2)[C@@H](C)C1 [Ia-54]
8 | 6.77 | 0.42 | 1.01 | 1.6 | 1.2 | 1.2 | C=CC(=O)N1[C@@H](C)CN(c2cc(-c3noc([C@@]4(C)CCCc5sc(N)c(C#N)c54)n3)nc(O[C@@H](C)[C@@H]3CCCN3C)n2)C[C@@H]1C [Ia-62]
